# Measurements published in patent US10450549B2, “Aryloxyphenoxypropionate tolerance in turfrgass species and use of AAD1 as a selectable marker” (Dow AgroSciences, LLC, priority 2004, dated 2019).
# Legend:
# [1] = tested on: wt ARBTH; experiment: In vitro plate test of herbicide cross resistance: wild-type Arabidopsis; format: in vivo, Arabidopsis thaliana; details: 7 days
# Protocol: (§1) The ability of AAD1 (v3) to provide resistance to other aryloxyphenoxyalkanoate herbicides in transgenic Arabidopsis was determined using a modified in vitro plate assay. Seeds from wild-type Arabidopsis thaliana as well as Arabidopsis thaliana containing the plant optimized AAD1 (v3) gene (T4 homozygous plants id=PAAD1.315.064) were sterilized by agitating for 10 min in a 50% bleach solution. These seeds were then rinsed four times with sterile water to remove the bleach.
# (§2) Dose response assays utilized a nutrient media (see below) supplemented with various rates of test compounds. The test compounds were added to the heated media (55° C.) as concentrated solutions in DMSO. Control wells had the appropriate amount of DMSO without any additional compound. The final concentration of DMSO never exceeded 1% (v/v). After thorough mixing, a 6 mL aliquot of the warm media containing the appropriate concentration of compound was added to each well of a 6-well, flat bottom, polystyrene tissue culture tray (Falcon 353046, Becton Dickson and Company, Franklin Lakes, N.J.). After the media solidified, approximately 20 to 30 Arabidopsis seeds were applied on top of the solidified media and the remaining 2 mL of media was poured over the seeds. The plates were lightly agitated to disperse the seeds, covered and allowed to cool until the media had completely solidified. The plates were incubated for 7 days at 25° C. under continual fluorescent lighting (75 μE m^−2 s^−1). Nutrient Media Composition was as described in Example 2.2 and in Somerville and Orgen (1982).
# (§3) Assessment of Growth Reduction. The apical portion of the Arabidopsis plants grown in the treated media was assessed visually relative to the apical portion of the plants grown in the media containing only DMSO. Values were recorded as % growth reduction. Assessments of root growth inhibition of the Arabidopsis plants grown in the treated media were achieved by carefully extracting the plants from the media and measuring the length of the root. These root lengths were then compared to the root length of the control plants to determine a % growth reduction. A minimum of five plants were assessed for each treatment. The values recorded are an average of all the plants assessed. The calculated concentration to reach 50% inhibition effect (I50) were determined for both root and shoots of wildtype and AAD1-transformed Arabidopsis. The ratios of resistant to sensitive biotypes are included in Table 19. A ratio>2 for both root and shoot measurements generally signifies significant resistance. The higher the ratio, the greater the level of resistance. […] The broad phenoxy auxin resistance is the first reported in planta.
# [2] = tested on: transformed-control line containing PAT and Cry1F; experiment: Foliar-applied auxinic herbicides on control (PAT/Cry1F, wildtype) Arabidopsis, % injury 14 DAT; format: in vivo, Arabidopsis thaliana; details: PatCry1f - Control
# Protocol: (§4) The ability of AAD1 (v3) to provide resistance to other aryloxyphenoxyalkanoate auxin herbicides in transgenic Arabidopsis was determined by foliar application of various substrates described in Example 6.8. T4 generation Arabidopsis seed, homozygous for AAD1 (v3) (line AAD1.01.315.076) was stratified, and sown into selection trays much like that of Arabidopsis (Example 6.4). A transformed-control line containing PAT and the insect resistance gene Cry1F was planted in a similar manner. Seedlings were transferred to individual 3-inch pots in the greenhouse. All plants were sprayed with the use of a track sprayer set at 187 L/ha. […] All applications were formulated in 200 mM Hepes buffer (pH 7.5). Each treatment was replicated 3-4 times. Plants were evaluated at 3 and 14 days after treatment and are averaged over two experiments.
# [3] = tested on: PAAD1.315.064 ARBTH; experiment: In vitro plate test of herbicide cross resistance: homozygous T4 AAD1 (v3) Arabidopsis; format: in vivo, Arabidopsis thaliana; details: for shoot ratio / root ratio: resistant to sensitive biotype, >2 signifies resistance; for PAAD1.315.064 ARBTH root 150 / PAAD1.315.064 T3 ARBTH shoot 150: 7 days
# Protocol: as §1, §2, §3
# [4] = tested on: T4 Arabidopsis homozygous for AAD1 (v3) (line AAD1.01.315.076); experiment: Foliar-applied auxinic herbicides on homozygous T4 AAD1 (v3) Arabidopsis, % injury 14 DAT; format: in vivo, Arabidopsis thaliana; details: AAD1.01.315.076.T4 homozygous AAD1 plants
# Protocol: as §4
# [5] = biological target: AAD2 (v1) (Bradyrhizobium diazoefficiens, UniProt Q89UC4); experiment: Colorimetric phenol assay of AAD2 (v1) E. coli extract / partially purified enzyme; format: biochemical, Bradyrhizobium japonicum; details: for A510 AAD2: substrate 0.5 mM, 15 min, 25 mM MOPS pH 6.8, 3 μl AAD2 extract (42 μg protein)
# [6] = biological target: T1, AAD1 (v1) (Sphingobium herbicidovorans, UniProt Q8KSC8); experiment: Colorimetric phenol detection assay of AAD1 (v1) activity (purified enzyme or E. coli extract); format: biochemical; details: for activity of AAD1 (v1) E. coli extract on substrate: 0.5 mM substrate, 4 μl extract; for activity of purified AAD1 (v1) on substrate: 1 mM substrate, 1 or 10 μg enzyme; for A510, AAD1 (10x): 10 μg purified AAD1 (v1) per 0.16 ml assay
# T1 construct: made in house; host or cells: E. coli BL-21 Star (DE3), plasmid pDAB3203
# [7] = Table 4, substrate 1 mM, 1 μg purified AAD1 (v1) per 0.16 ml assay
# [8] = substrate 0.5 mM, 15 min, 25 mM MOPS pH 6.8, 4 μl AAD1 (32 μg protein) extract
compound,measurement,setting,value
"O=C(O)COc1cc(Cl)c(Cl)cc1Cl [2,4,5-T]",wt ARBTH root 150,[1],<0.01 ppm
same,wt ARBTH shoot 150,[1],1.5 ppm
same,Ave % Injury 14DAT,[2]; 8.75 g ae/ha foliar,0%
same,Ave % Injury 14DAT,[2]; 17.5 g ae/ha foliar,20%
same,Ave % Injury 14DAT,[2]; 35 g ae/ha foliar,43%
same,Ave % Injury 14DAT,[2]; 70 g ae/ha foliar,85%
same,Ave % Injury 14DAT,[2]; 140 g ae/ha foliar,95%
same,Ave % Injury 14DAT,[2]; 280 g ae/ha foliar,98%
same,Ave % Injury 14DAT,[2]; 560 g ae/ha foliar,100%
same,Ave % Injury 14DAT,[2]; 1120 g ae/ha foliar,100%
same,shoot ratio,[3],6.67
same,PAAD1.315.064 ARBTH root 150,[3],<0.01 ppm
same,PAAD1.315.064 T3 ARBTH shoot 150,[3],10 ppm
same,Ave % Injury 14DAT,[4]; 8.75 g ae/ha foliar,0%
same,Ave % Injury 14DAT,[4]; 17.5 g ae/ha foliar,3%
same,Ave % Injury 14DAT,[4]; 35 g ae/ha foliar,0%
same,Ave % Injury 14DAT,[4]; 70 g ae/ha foliar,3%
same,Ave % Injury 14DAT,[4]; 140 g ae/ha foliar,0%
same,Ave % Injury 14DAT,[4]; 280 g ae/ha foliar,0%
same,Ave % Injury 14DAT,[4]; 560 g ae/ha foliar,17%
same,Ave % Injury 14DAT,[4]; 1120 g ae/ha foliar,3%
C[C@H](Oc1ccc(Oc2ccc(C#N)cc2F)cc1)C(=O)O [(S)- cyhalofop],A510 AAD2,[5],0.15
same,activity of AAD1 (v1) E. coli extract on substrate,[6]; 15 min,no activity
same,activity of purified AAD1 (v1) on substrate,[6],Minimal activity
same,"A510, AAD1",[6]; [7],0.003
same,"A510, AAD1 (10x)","[6]; Table 4, substrate 1 mM",0.017
same,"A510, AAD1",[6]; [8],0
C[C@@H](Oc1ccc(Oc2cnc3cc(Cl)ccc3n2)cc1)C(=O)O [(R)- quizalofop],A510 AAD2,[5],0.01
same,"A510, AAD1",[6]; [7],0.43
same,"A510, AAD1 (10x)","[6]; Table 4, substrate 1 mM",2.1
same,kcat,[6]; purified AAD1 (v1),0.315 s⁻¹
same,Vmax ± SE,"[6]; purified AAD1 (v1), Michaelis-Menten fit",0.57 ± 0.03 μmol min^−1 mg^−1 AAD1
same,"A510, AAD1",[6]; [8],0.27
"Cc1cc(Cl)ccc1OC(C)C(=O)O (racemic) [(R,S)-mecoprop]",wt ARBTH root 150,[1],0.01 ppm
same,wt ARBTH shoot 150,[1],2 ppm
same,Ave % Injury 14DAT,[2]; 12.5 g ae/ha foliar,0%
same,Ave % Injury 14DAT,[2]; 25 g ae/ha foliar,2%
same,Ave % Injury 14DAT,[2]; 50 g ae/ha foliar,17%
same,Ave % Injury 14DAT,[2]; 100 g ae/ha foliar,33%
same,Ave % Injury 14DAT,[2]; 200 g ae/ha foliar,62%
same,Ave % Injury 14DAT,[2]; 400 g ae/ha foliar,78%
same,Ave % Injury 14DAT,[2]; 800 g ae/ha foliar,93%
same,Ave % Injury 14DAT,[2]; 1600 g ae/ha foliar,100%
same,root ratio,[3],150
same,shoot ratio,[3],12.5
same,PAAD1.315.064 ARBTH root 150,[3],1.5 ppm
same,PAAD1.315.064 T3 ARBTH shoot 150,[3],25 ppm
same,activity of AAD1 (v1) E. coli extract on substrate,[6]; 15 min,cleaved
same,"A510, AAD1","[6]; Table 3, substrate 1 mM, 1 μg purified AAD1 (v1) per 0.16 ml assay, 15 min",0.341
same,"A510, AAD1 (10x)","[6]; Table 3, substrate 1 mM, 15 min",2.085
same,Ave % Injury 14DAT,[4]; 12.5 g ae/ha foliar,3%
same,Ave % Injury 14DAT,[4]; 25 g ae/ha foliar,0%
same,Ave % Injury 14DAT,[4]; 50 g ae/ha foliar,0%
same,Ave % Injury 14DAT,[4]; 100 g ae/ha foliar,0%
same,Ave % Injury 14DAT,[4]; 200 g ae/ha foliar,3%
same,Ave % Injury 14DAT,[4]; 400 g ae/ha foliar,0%
same,Ave % Injury 14DAT,[4]; 800 g ae/ha foliar,0%
same,Ave % Injury 14DAT,[4]; 1600 g ae/ha foliar,0%
"O=S(=O)(O)COc1ccc(Cl)cc1Cl [2,4-D sulfonate]",AAD2 (v1) activity on substrate,[5]; E. coli extract,little or no detectable phenol
same,"phenol produced by AAD1 (v1) relative to 2,4-D",[6]; another test,~25%
O=C(O)COc1ccc(Oc2ncc(C(F)(F)F)cc2Cl)cc1 [haloxyfop- oxyacetate],A510 AAD2,[5],0.22
same,activity of purified AAD1 (v1) on substrate,[6],cleaved very slowly
same,"A510, AAD1",[6]; [7],0.004
same,"A510, AAD1 (10x)","[6]; Table 4, substrate 1 mM",0.053
same,"A510, AAD1",[6]; [8],0
CC(Oc1ccc(Oc2ncc(C(F)(F)F)cc2Cl)cc1)C(=O)O (racemic) [haloxyfop],A510 AAD2,[5],0.3
same,"A510, AAD1",[6]; [8],0.1
C[C@@H](Oc1ccc(Oc2nc3ccc(Cl)cc3o2)cc1)C(=O)O [(R)- fenoxaprop],A510 AAD2,[5],0
same,"A510, AAD1",[6]; [7],0.408
same,"A510, AAD1 (10x)","[6]; Table 4, substrate 1 mM",0.597
same,"A510, AAD1",[6]; [8],0.14
Nc1c(Cl)c(Cl)nc(C(=O)O)c1Cl [Picloram],wt ARBTH root 150,[1],0.3 ppm
same,wt ARBTH shoot 150,[1],1 ppm
same,root ratio,[3],0.5
same,shoot ratio,[3],0.5
same,resistance afforded by AAD1 (v3) in plate test,[3]; root and shoot assessment,did not effectively protect
same,PAAD1.315.064 ARBTH root 150,[3],0.15 ppm
same,PAAD1.315.064 T3 ARBTH shoot 150,[3],0.5 ppm
C[C@@H](Oc1ccc(Oc2ccc(C#N)cc2F)cc1)C(=O)O [(R)- cyhalofop],A510 AAD2,[5],0
same,"A510, AAD1",[6]; [7],0.222
same,"A510, AAD1 (10x)","[6]; Table 4, substrate 1 mM",1.989
same,"A510, AAD1",[6]; [8],0.14
CC(Oc1ccc(Oc2ncc(C(F)(F)F)cc2Cl)cc1)C(=O)O (stereo not shown) [compound 8671],A510 AAD2,[5],0
same,"A510, AAD1",[6]; [8],0.12
Cc1cc(Cl)ccc1OCC(=O)O [MCPA],wt ARBTH root 150,[1],0.01 ppm
same,wt ARBTH shoot 150,[1],0.2 ppm
same,root ratio,[3],3
same,shoot ratio,[3],5
same,PAAD1.315.064 ARBTH root 150,[3],0.03 ppm
same,PAAD1.315.064 T3 ARBTH shoot 150,[3],1 ppm
same,"rate of product formation relative to 2,4-D","[6]; 1 mM, 27 μg crude recombinant AAD1 (v1) per assay",55%
same,A510,"[6]; Table 8, 1 mM, 27 μg crude recombinant AAD1 (v1) extract from E. coli",0.097
same,"% 2,4-D","[6]; Table 8, relative to 2,4-D, crude AAD1 (v1) extract",55%
"CC(Oc1ccc(Oc2ccc(C#N)cc2F)cc1)C(=O)O (racemic) [(R,S)- cyhalofop]",A510 AAD2,[5],0.1
same,"A510, AAD1",[6]; [7],0.215
same,"A510, AAD1 (10x)","[6]; Table 4, substrate 1 mM",1.815
same,"A510, AAD1",[6]; [8],0.12
